According to US9233933B2, “4,4-disubstituted-1,4-dihydropyrimidines and the use thereof as medicaments for the treatment of hepatitis B” (priority 2012, dated 2016):
Where two headings read alike, the source gives them in different places.

Assays:
[1] = Cytotoxicity in HepG2 cells using CellTiter-Blue, same incubation period as HepG2.2.15 assay; format: cell-based; details: human
Experimental: Cytotoxicity of the compounds was tested in HepG2 cells using CellTiter-Blue, with the same incubation period and dose range as in the HepG2.2.15 assay.

HBV [2] = assay: anti-HBV activity in stable transfected HepG2.2.15 cell line, HBV DNA from secreted virions by realtime PCR; format: cell-based, Hepatitis B virus; details: read-out: HBV-HepG2 2.15 EC50
[3] = Cytotoxicity in HepG2 cells incubated 4 days, Resazurin assay; details: human, HepG2 4 days CC50, HepG2 cells
HBV [4] = assay: anti HBV activity in HepG2.117 cell line (Tet-off, inducibly HBV producing), intracellular HBV DNA by realtime PCR; format: cell-based, Hepatitis B virus; details: read-out: HepG2 117 EC50
[5] = HepG2 cells, 6 days, CellTiter-Blue, read-out: HepG2 6 days CC50
[6] = Hepatitis B virus, HepG2.2.15, 144 h, HepG2.2.15 cells, 6 days of treatment, secreted virion HBV DNA
[7] = Hepatitis B virus, HepG2.117, 72 h, HepG2.117 cells, 3 days of treatment, intracellular HBV DNA
[8] = HepG2.2.15 cells, 6 days of treatment, secreted virion HBV DNA
[9] = Hepatitis B virus, HepG2.117, 72 h
[10] = Hepatitis B virus, HepG2.2.15, 144 h
[11] = HepG2.117 cells, 3 days of treatment, intracellular HBV DNA

| SMILES | CC50 at 6 days [1, 5] | EC50 (HBV [2]; [6]) | CC50 at 4 days [3] | EC50 (HBV [4]; [7]) | other results |
| --- | --- | --- | --- | --- | --- |
| CCOC(=O)C1=C(C)NC(c2nccs2)=NC1(C)c1ccc(F)c(Cl)c1 (stereo not drawn) [Compound 21] | 17.5 µM | 12.7 µM | – | – | – |
| COCC1=C(C(=O)OC)C(C)(c2ccc(F)c(F)c2)N=C(c2ncc(F)cc2F)N1 (stereo not drawn) [Compound 152] | – | 3.38 µM | > 25 µM | 2.88 µM | – |
| COC(=O)C1=C(CN2CCOCC2)NC(c2ccccn2)=NC1(C)c1cc(F)cc(Cl)c1 (stereo not drawn) [Compound 29] | 47.4 µM | 6.32 µM | > 25 µM | 3 µM | – |
| CCOC(=O)C1=C(C(F)(F)C(F)(F)F)NC(c2ccccn2)=NC1(C)c1ccc(F)cc1 (stereo not drawn) [Compound 11] | > 100 µM | > 100 µM | – | – | – |
| COC(=O)C1=C(C)NC(c2nccn2C)=NC1(C)c1ccc(F)c(F)c1 (stereo not drawn) [Compound 162] | – | > 25 µM | > 25 µM | > 25 µM | – |
| COC(=O)C1=C(C)NC(c2ncc(F)cc2F)=NC1(C)c1ccc(Cl)c(F)c1 (stereo not drawn) [Compound 156] | – | 1.11 µM | > 25 µM | 0.669 µM | – |
| COC(=O)C1=C(C)NC(c2ncccc2F)=NC1(C)c1ccc(F)c(F)c1 (racemic) [Compound 158] | – | – | > 25 µM | 4.56 µM | – |
| CCOC(=O)C1=C(CN2CCOCC2)NC(c2ncc(F)cc2F)=NC1(C)c1ccc(F)cc1 (stereo not drawn) [Compound 24] | 37.9 µM | 0.319 µM | > 25 µM | 0.16 µM | – |
| CCOC(=O)C1=C(CN2CCOCC2)NC(c2ccccn2)=NC1(C)c1ccc(F)cc1 (racemic) [Compound 4] | 51.1 µM | – | > 25 µM | 0.66 µM | EC50 (HBV [2]; [8]): 1.92 µM |
| COC(=O)C1=C(CN2CCOCC2)NC(c2ncc(F)cc2F)=NC1(C)c1cc(F)cc(Cl)c1 (stereo not drawn) [Compound 27] | > 100 µM | 1.83 µM | > 25 µM | 0.63 µM | – |
| N#CC1=C(CN2CCOCC2)NC(c2ccccn2)=NC12CCCc1ccc(F)cc12 (stereo not drawn) [Compound 58] | > 100 µM | > 100 µM | > 25 µM | > 25 µM | – |
| CCOC(=O)C1=C(C)NC(c2ccccn2)=NC1(C)c1ccc(F)c(Cl)c1 (stereo not drawn) [Compound 17] | 39.9 µM | > 50 µM | > 25 µM | 21 µM | – |
| COC(=O)C1=C(C)NC(c2ncc(F)cc2F)=NC1(C)c1ccc(F)c(F)c1 (stereo not drawn) [Compound 132b] | – | – | > 25 µM | – | EC50 (HBV [4]; [9]): 0.474 µM; EC50 (HBV [2]; [10]): 0.784 µM |
| COC(=O)C1=C(C)NC(c2ncc(F)cc2F)=NC1(C)c1ccc(F)c(C)c1 (stereo not drawn) [Compound 149] | – | 23.8 µM | > 25 µM | 3.26 µM | – |
| COC(=O)C1=C(C)NC(c2ccccn2)=NC1(C)c1cccc(F)c1 (stereo not drawn) [Compound 31] | > 100 µM | – | > 50 µM | – | EC50 (HBV [4]; [9]): 40.6 µM; EC50 (HBV [2]; [10]): 72.4 µM |
| CCOC(=O)C1=C(CN2CCSCC2)NC(c2ccccn2)=NC1(C)c1ccc(F)cc1 (stereo not drawn) [Compound 8] | 54.3 µM | 14.8 µM | > 50 µM | 3.3 µM | – |
| CCOC(=O)C1=C(CN2CCCC2)NC(c2ccccn2)=NC1(C)c1ccc(F)cc1 (stereo not drawn) [Compound 7] | 13.4 µM | > 100 µM | – | – | – |
| COC(=O)C1=C(C)NC(c2ncc(F)cc2F)=NC1(C)c1ccc(C)c(F)c1 (stereo not drawn) [Compound 157] | – | 9.52 µM | > 25 µM | 3.06 µM | – |
| COC(=O)C1=C(C)NC(c2ncc(F)cc2C)=NC1(C)c1ccc(F)c(F)c1 (stereo not drawn) [Compound 154] | – | 27.5 µM | > 25 µM | 17.6 µM | – |
| COC/C=C/C1=C(C(=O)OC)C(C)(c2ccc(F)c(F)c2)N=C(c2ncc(F)cc2F)N1 (stereo not drawn) [Compound 147] | – | 2.73 µM | > 25 µM | 3.17 µM | – |
| CCOC(=O)C1=C(C#N)NC(c2ccccn2)=NC1(C)c1ccc(F)cc1 (stereo not drawn) [Compound 5] | > 100 µM | > 100 µM | – | – | – |
| CC1(C)CCC2(N=C(c3ccccn3)NC(CN3CCOCC3)=C2C#N)c2ccccc21 (stereo not drawn) [Compound 57] | 87.4 µM | > 100 µM | > 25 µM | > 25 µM | – |
| COC(=O)C1=C(CN2CCOCC2)NC(c2ncc(F)cc2F)=NC1(C)c1ccc(F)c(Cl)c1 (stereo not drawn) [Compound 150] | – | 1.35 µM | > 25 µM | 0.694 µM | – |
| COC(=O)C1=C(C)NC(c2nccs2)=NC1(C)c1ccc(F)c(F)c1 (single isomer, unassigned) [Compound 155a] | – | – | – | 17.1 µM | EC50 (HBV [2]; [8]): 0.983 µM |
| COC(=O)C1=C(C)NC(c2ncc(F)cc2F)=NC1(C)c1ccc(F)c(F)c1 (single isomer, unassigned) [Compound 132a] | – | > 100 µM | 21.1 µM | > 25 µM | – |

| SMILES | CC50 at 6 days [1, 5] | EC50 (HBV [2]; [6]) | CC50 at 4 days [3] | EC50 (HBV [4]; [7]) | other results |
| --- | --- | --- | --- | --- | --- |
| COC(=O)C1=C(C)NC(c2nccs2)=NC1(C)c1ccc(F)c(F)c1 (single isomer, unassigned) [Compound 155b] | – | – | – | – | EC50 (HBV [4]; [11]): > 25 µM; EC50 (HBV [2]; [8]): > 100 µM |
| COC(=O)C1=C(C)NC(c2ncccc2F)=NC1(C)c1ccc(F)c(F)c1 (single isomer, unassigned) [Compound 158a] | – | – | > 25 µM | – | EC50 (HBV [4]; [11]): 2.44 µM |
| CCOC(=O)C1=C(C)NC(c2ccccn2)=NC12CCc1cc(F)ccc12 (stereo not drawn) [Compound 40] | – | 14 µM | – | – | CC50 at 6 days ([1]; HepG2 6 days CC50): 77 µM |
| COC(=O)C1=C(C)NC(SC)=NC1(C)c1ccc(F)c(F)c1 (racemic) [Compound 160] | – | 0.717 µM | > 25 µM | 23.7 µM | – |
| COC(=O)C1=C(C#N)NC(c2ncc(F)cc2F)=NC1(C)c1ccc(F)c(F)c1 (single isomer, unassigned) [Compound 163a] | – | 69.5 µM | > 25 µM | > 25 µM | – |
| COC(=O)C1=C(CN2CCOCC2)NC(c2ccccn2)=NC1(C)c1cccc(F)c1 (stereo not drawn) [Compound 30] | > 100 µM | 0.941 µM | > 25 µM | 0.29 µM | – |
| COC(=O)C1=C(C)NC(c2ncc(F)cc2F)=NC1(c1ccc(F)c(F)c1)C(F)F (single isomer, unassigned) [Compound 151a] | – | – | > 25 µM | – | EC50 (HBV [4]; [11]): > 25 µM; EC50 (HBV [2]; [8]): > 100 µM |
| CCOC(=O)C1=C(C)NC(c2ccccn2)=NC1(C)c1ccc(F)cc1 (stereo not drawn) [Compound 6] | > 25 µM | > 25 µM | – | – | – |
| COC(=O)C1=C(C)NC(c2ccc(F)cn2)=NC1(C)c1ccc(F)c(F)c1 (stereo not drawn) [Compound 133] | – | – | > 25 µM | – | EC50 (HBV [4]; [9]): 4.33 µM; EC50 (HBV [2]; [10]): 17.3 µM |
| COC(=O)C1=C(C)NC(c2ncc(F)cc2F)=NC1(C)c1ccc(F)c(Cl)c1 (stereo not drawn) [Compound 148] | – | – | 17.2 µM | > 25 µM | – |
| CCOC(=O)C1=C(C(F)(F)F)NC(c2ccccn2)=NC1(C)c1ccc(F)cc1 (stereo not drawn) [Compound 10] | > 10 µM | > 10 µM | > 10 µM | > 10 µM | – |
| N#CC1=C(CN2CCOCC2)NC(c2ccccn2)=NC12CCc1ccccc12 (stereo not drawn) [Compound 76] | > 100 µM | 8.48 µM | > 100 µM | 3.65 µM | – |
| COC(=O)C1=C(C)NC(c2ncc(F)cc2C)=NC12CCCc1cc(F)ccc12 (stereo not drawn) [Compound 81] | – | 19.9 µM | – | – | CC50 at 6 days ([1]; HepG2 6 days CC50): > 50 µM |
| COC(=O)C1=C(C)NC(SC)=NC1(C)c1ccc(F)c(F)c1 (single isomer, unassigned) [Compound 160a] | – | – | > 25 µM | – | EC50 (HBV [4]; [11]): > 25 µM; EC50 (HBV [2]; [8]): > 50 µM |
| CCOC(=O)C1=C(CN2CCCCC2)NC(c2ccccn2)=NC1(C)c1ccc(F)cc1 (stereo not drawn) [Compound 9] | 62.4 µM | > 100 µM | – | – | – |
| N#CC1=C(CN2CCOCC2)NC(c2ccccn2)=NC12CCCc1cc(F)ccc12 (single isomer, unassigned) [Compound 60a] | > 100 µM | – | > 100 µM | – | EC50 (HBV [4]; [11]): > 100 µM; EC50 (HBV [2]; [8]): > 100 µM |
| COC(=O)C1=C(C)NC(c2ncccn2)=NC1(C)c1ccc(F)c(F)c1 (single isomer, unassigned) [Compound 159a] | – | – | > 25 µM | 25 µM | EC50 (HBV [2]; [8]): 37.5 µM |
| COC(=O)C1=C(C2CC2)NC(c2ncc(F)cc2F)=NC1(C)c1ccc(F)c(F)c1 (stereo not drawn) [Compound 142] | – | 11.5 µM | > 25 µM | 3.37 µM | – |
| CCOC(=O)C1=C(CN2CCOCC2)NC(c2ccccn2)=NC1(C)c1ccc(F)cc1F (stereo not drawn) [Compound 42] | 57.7 µM | 3.07 µM | > 50 µM | 1.29 µM | – |
| COC(=O)C1=C(C)NC(c2nccs2)=NC1(C)c1ccc(F)c(F)c1 (racemic) [Compound 155] | – | 0.744 µM | – | 14 µM | – |
| N#CC1=C(CN2CCOCC2)NC(c2ccccn2)=NC12CCCc1ccccc12 (stereo not drawn) [Compound 61] | > 100 µM | 18 µM | – | – | – |
| CCOC(=O)C1=C(C)NC(c2ccccn2)=NC1(c1ccc(F)cc1)C(F)(F)F (stereo not drawn) [Compound 35] | 68.1 µM | > 100 µM | – | – | – |
| C=CC1=C(C(=O)OC)C(C)(c2ccc(F)c(F)c2)N=C(c2ncc(F)cc2F)N1 (stereo not drawn) [Compound 153] | – | 12.9 µM | > 25 µM | 3.31 µM | – |
| COC(=O)C1=C(C)NC(c2ncc(F)cc2F)=NC1(C)c1ccc(F)c(F)c1 (stereo not drawn) [132b (−)-camphanic acid] | – | – | – | – | EC50 (HBV [2]; [8]): 0.489 µM |
| COC(=O)C1=C(C)NC(c2cnccn2)=NC1(C)c1ccc(F)c(F)c1 (stereo not drawn) [Compound 161] | – | – | – | > 25 µM | – |
